Measurements: article PMC7044277 (Nature Communications, 2020)
“And” between values parts separate entries of the source, which are not always exact repeats. Identical values can stand only once.

Experiments:
Format in all cases: cell-based
320 non-olfactory GPCRs [1] = target: T1, 320 non-olfactory GPCRs (Homo sapiens, UniProt P46092)
T1 construct: expressed in transfected cells; host or cells: HTLA cells

320 non-olfactory GPCRs [2] = target: T2, 320 non-olfactory GPCRs (Homo sapiens, UniProt Q8TDV5)
T2 construct: expressed in transfected cells; host or cells: HTLA cells

320 non-olfactory GPCRs [3] = target: T3, 320 non-olfactory GPCRs (Homo sapiens, UniProt Q9HBW9)
T3 construct: expressed in transfected cells; host or cells: HTLA cells

320 non-olfactory GPCRs [4] = target: T4, 320 non-olfactory GPCRs (Homo sapiens, UniProt Q9UBS5)
T4 construct: expressed in transfected cells; host or cells: HTLA cells
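Also: compound tested at 1 µM final concentration.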

T1 sequence (P46092 whole entry): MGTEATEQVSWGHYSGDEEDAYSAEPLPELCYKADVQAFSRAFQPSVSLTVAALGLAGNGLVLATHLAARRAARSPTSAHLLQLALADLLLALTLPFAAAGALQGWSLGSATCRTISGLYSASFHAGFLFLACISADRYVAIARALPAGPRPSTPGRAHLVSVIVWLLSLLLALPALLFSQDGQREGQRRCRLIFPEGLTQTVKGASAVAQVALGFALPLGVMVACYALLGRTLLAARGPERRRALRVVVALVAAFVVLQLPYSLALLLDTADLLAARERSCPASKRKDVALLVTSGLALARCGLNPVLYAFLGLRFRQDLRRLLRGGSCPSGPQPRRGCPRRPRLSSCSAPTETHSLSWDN
T2 sequence (Q8TDV5 whole entry): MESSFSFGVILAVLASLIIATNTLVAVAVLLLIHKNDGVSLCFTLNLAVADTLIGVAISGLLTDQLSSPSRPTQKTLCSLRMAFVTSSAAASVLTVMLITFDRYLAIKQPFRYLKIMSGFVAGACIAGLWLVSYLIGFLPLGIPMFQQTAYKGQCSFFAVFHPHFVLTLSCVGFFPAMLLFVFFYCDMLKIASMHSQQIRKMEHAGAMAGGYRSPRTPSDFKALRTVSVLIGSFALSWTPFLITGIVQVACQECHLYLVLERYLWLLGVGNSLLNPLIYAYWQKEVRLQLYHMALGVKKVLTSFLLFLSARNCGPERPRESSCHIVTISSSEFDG
T3 sequence (Q9HBW9 20-690): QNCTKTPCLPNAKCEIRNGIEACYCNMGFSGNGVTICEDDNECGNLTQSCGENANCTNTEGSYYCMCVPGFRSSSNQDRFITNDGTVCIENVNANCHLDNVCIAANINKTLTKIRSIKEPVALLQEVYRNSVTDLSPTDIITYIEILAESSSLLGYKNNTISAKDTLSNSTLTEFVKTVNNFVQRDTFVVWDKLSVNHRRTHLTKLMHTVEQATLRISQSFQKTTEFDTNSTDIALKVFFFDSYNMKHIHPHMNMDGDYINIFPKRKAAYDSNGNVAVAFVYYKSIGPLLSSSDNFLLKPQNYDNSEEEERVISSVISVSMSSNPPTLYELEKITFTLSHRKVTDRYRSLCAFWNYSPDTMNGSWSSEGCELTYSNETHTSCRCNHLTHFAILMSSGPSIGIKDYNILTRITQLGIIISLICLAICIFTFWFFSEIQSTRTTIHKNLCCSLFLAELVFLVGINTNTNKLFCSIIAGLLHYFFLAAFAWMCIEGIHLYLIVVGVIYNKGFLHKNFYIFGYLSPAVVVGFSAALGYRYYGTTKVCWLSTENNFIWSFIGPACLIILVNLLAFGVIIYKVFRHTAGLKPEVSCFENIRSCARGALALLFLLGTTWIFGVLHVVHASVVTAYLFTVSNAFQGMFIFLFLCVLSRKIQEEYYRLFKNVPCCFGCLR
T4 sequence (Q9UBS5 20-961): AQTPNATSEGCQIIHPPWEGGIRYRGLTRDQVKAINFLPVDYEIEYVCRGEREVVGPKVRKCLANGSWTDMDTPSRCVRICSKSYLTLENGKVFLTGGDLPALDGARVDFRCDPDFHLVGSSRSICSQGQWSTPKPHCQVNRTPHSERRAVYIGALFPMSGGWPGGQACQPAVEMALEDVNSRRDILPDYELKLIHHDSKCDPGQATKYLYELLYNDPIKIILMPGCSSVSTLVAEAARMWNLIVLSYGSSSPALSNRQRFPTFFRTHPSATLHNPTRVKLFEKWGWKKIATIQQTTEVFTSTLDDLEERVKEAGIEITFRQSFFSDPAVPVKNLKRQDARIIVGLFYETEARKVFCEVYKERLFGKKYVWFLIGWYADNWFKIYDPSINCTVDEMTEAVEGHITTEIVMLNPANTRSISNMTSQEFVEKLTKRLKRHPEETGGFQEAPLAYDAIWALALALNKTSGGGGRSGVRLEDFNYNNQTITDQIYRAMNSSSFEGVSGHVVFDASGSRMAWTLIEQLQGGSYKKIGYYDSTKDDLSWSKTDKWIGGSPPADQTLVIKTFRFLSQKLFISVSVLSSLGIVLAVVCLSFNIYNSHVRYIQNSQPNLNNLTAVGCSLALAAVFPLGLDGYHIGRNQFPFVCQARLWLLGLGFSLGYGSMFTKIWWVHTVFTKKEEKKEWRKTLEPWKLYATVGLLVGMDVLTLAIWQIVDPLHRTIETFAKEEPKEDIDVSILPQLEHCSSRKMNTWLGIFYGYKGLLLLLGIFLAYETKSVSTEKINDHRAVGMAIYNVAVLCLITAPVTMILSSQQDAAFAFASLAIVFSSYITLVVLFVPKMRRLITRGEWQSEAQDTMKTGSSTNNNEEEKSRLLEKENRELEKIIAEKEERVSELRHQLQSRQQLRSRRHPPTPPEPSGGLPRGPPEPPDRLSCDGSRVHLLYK

CCOc1cccc2cc(C(C)NCC3(O)CCCCC3)oc12 (stereo not shown) [O4LE6]
Fold of Basal (320 non-olfactory GPCRs [1]): 0.7929 and 1.009 and 0.769 and 1.275
Fold of Basal (320 non-olfactory GPCRs [2]): 0.5971 and 0.6704 and 0.4797 and 0.8296
Fold of Basal (320 non-olfactory GPCRs [3]): 1.158 and 1.093 and 1.161 and 0.9931
Fold of Basal (320 non-olfactory GPCRs [4]): 0.7465 and 0.7299 and 1.058 and 0.6886
